“And” between values parts separate entries of the source, which are not always exact repeats. Equal values may be shown once.
Legend:
[1] = tested on: HDAC homologues (HDACs), HeLa cell extract; assay: Fluorimetric HDACs inhibition kit (Histone Deacetylase Activity Assay, HeLa cell extract); conditions: for HDAC activity at 2 µM [%]: remaining HDACs activity at 2 µM compound; for IC50: read-out: Inhibition of HDAC homologues (HDACs) IC50
Protocol: The HDACAA kit is based on a two-step enzymatic reaction. The substrate for the reaction is a substituted peptide with an acetylated lysine residue and a bound fluorescent group. The first step of the reaction is deacetylation of the acetylated lysine side chain by the HDAC containing sample (HeLa cell extract). The second step is the cleavage of the deacetylated substrate with the developer solution and the release of the free highly fluorescent group. […] The plate was incubated at 30 °C for 30 min. Next, 10 µL of Developer Solution was added to each well and incubated at room temperature for 10 min. The fluorescence was measured with the fluorimeter plate reader (SpectraMax iD3, Molecular Devices): excitation wavelength of 360 nm and emission wavelength of 460 nm. The following concentrations were used: 0.1, 0.5, 1, and 2 µM. Each compound in each concentration was tested in triplicate. All calculations were performed using Origin 9.0 software.

MV4-11 cells = assay: Cytotoxicity assay (MTT), 72 h; format: cell-based, human; conditions: for IC50: Homo sapiens, MV4-11, 72 h of treatment, MTT; for Selectivity index MV4-11: IC50 of normal (BALB/3T3) vs. cancer cells (MV4-11)
Protocol: (§1) Then, the tested compounds were diluted in culture medium (RPMI1640 + OptiMEM) to reach the final concentrations. Then, cells were treated for 72 h with derivatives at concentrations of […] (100 μL of each concentration per well), or with culture medium alone as a cells control or medium control.
(§2) Each compound in each concentration was tested in triplicate in a single experiment, which was repeated 3–5 times.
(§3) MTT: 20 µL MTT solution (5 mg/mL of PBS, Merck) was added to wells and plates were placed in an incubator. […] The optical density of individual samples was read at a wavelength of 570 nm using a plate reader (Synergy H4 Hybrid Reader, BioTek).

Daudi cells = assay: Cytotoxicity assay (MTT), 72 h; format: cell-based, human; conditions: for IC50: Homo sapiens, Daudi, 72 h of treatment, MTT; for Selectivity index Daudi: IC50 of normal (BALB/3T3) vs. cancer cells (Daudi)
Protocol: as §1, §2, §3

A549 cells = assay: Cytotoxicity assay (SRB), 72 h; format: cell-based, human; conditions: for IC50: Homo sapiens, A549, 72 h of treatment, SRB; for Selectivity index A549: IC50 of normal (BALB/3T3) vs. cancer cells (A549)
Protocol: as §1, §2
(§4) SRB: 50 µL 50% cold trichloroacetic acid (TCA, Merck) solution was added to each wells and incubated for 1 h at 4 °C. The plates were rinsed with distilled water, and after drying on a paper towel, 50 µL of a 0.1% (w/v) solution of sulforodamine B (Merck) in 1% acetic acid (POCH, Poland) was added and incubated for 30 min at room temperature. Subsequently, the plates were washed with 1% (v/v) acetic acid and after desiccation of excess acid, 150 µL of 10 mM TRIS (Merck) was added. After another 30 min of incubation at RT, the optical density of individual samples was read at 540 nm using a plate reader (Synergy H4 Hybrid Reader, BioTek).

MCF-7 cells = assay: Cytotoxicity assay (SRB), 72 h; format: cell-based, human; conditions: for IC50: Homo sapiens, MCF7, 72 h of treatment, SRB; for Selectivity index MCF-7: IC50 of normal (BALB/3T3) vs. cancer cells (MCF-7)
Protocol: as §1, §2, §4

BALB/3T3 cells = assay: Cytotoxicity assay (SRB), 72 h; conditions: Mus musculus, BALB/3T3, 72 h, read-out: IC50 BALB/3T3
Protocol: Then, the tested compounds were diluted in culture medium (RPMI1640 + OptiMEM) to reach the final concentrations. Then, cells were treated for 72 h with derivatives at concentrations of 50, 10, 2, 0.4, and 0.008 µM (100 μL of each concentration per well), or with culture medium alone as a cells control or medium control.

HDAC8 = molecular target: T1, HDAC8 (Homo sapiens, UniProt Q9BY41); assay: Histone Deacetylase 8 Activity Assay; format: biochemical; conditions: read-out: Inhibition of HDAC8 activity IC50
T1 construct: purchased Sigma
T1 sequence (Q9BY41 1-377): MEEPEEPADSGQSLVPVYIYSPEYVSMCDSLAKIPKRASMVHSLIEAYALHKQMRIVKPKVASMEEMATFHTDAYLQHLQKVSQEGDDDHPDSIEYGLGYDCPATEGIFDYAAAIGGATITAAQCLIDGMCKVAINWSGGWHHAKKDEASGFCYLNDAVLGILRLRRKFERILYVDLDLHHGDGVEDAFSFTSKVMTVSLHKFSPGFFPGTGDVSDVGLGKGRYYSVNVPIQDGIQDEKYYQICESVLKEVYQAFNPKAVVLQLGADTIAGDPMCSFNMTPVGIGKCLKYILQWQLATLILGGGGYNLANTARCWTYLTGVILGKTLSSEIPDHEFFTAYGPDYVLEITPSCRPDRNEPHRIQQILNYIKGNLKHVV
Protocol: In order to measure histone deacetylase 8 activity, Histone Deacetylase 8 Activity Assay (Sigma) was used. The HDAC8 acts with the supplied Developer to deacetylate and then cleave the HDAC8 Substrate (R-H-K(Ac)-K(Ac)-AFC). The reaction reagents were added to the wells of a 96-well plate according to Table 7. […] The fluorescence was measured with the fluorimeter plate reader: excitation wave-length of 380 nm and emission wavelength of 500 nm. The following concentrations were used: 0.5, 1, 1.5, 2, 3, and 4 µM. Each compound in each concentration was tested in triplicate. All calculations were performed using Origin 9.0 software.

Structure (SMILES)	melting point	HDAC activity at 2 µM [%] [1]	IC50 (MV4-11 cells)	IC50 (Daudi cells)	IC50 [1]	IC50 (A549 cells)	Selectivity index A549 (A549 cells)	IC50 (MCF-7 cells)	Selectivity index MCF-7 (MCF-7 cells)	IC50 (BALB/3T3 cells)	Selectivity index MV4-11 (MV4-11 cells)	Selectivity index Daudi (Daudi cells)	IC50 (HDAC8)
CN1C(=O)c2ccccc2N(CCCCCCC(=O)NO)C(=O)c2ccccc21 [Compound 7f]	145 to 146 °C	66.1 ± 4.1%	4450 ± 340 nM	4830 ± 1960 nM	–	–	–	–	–	–	–	–	–
O=C(CCCCN1C(=O)c2ccccc2C=Cc2ccccc21)NO [Compound 7j]	175 to 176 °C	63.3 ± 0.5%	5300 ± 1360 nM	3470 ± 660 nM	–	–	–	–	–	–	–	–	–
CN1C(=O)c2ccccc2N(CC(=O)NO)C(=O)c2ccccc21 [Compound 7a]	233 to 234 °C	95.6 ± 1.4%	> 50000 nM	> 50000 nM	–	–	–	–	–	–	–	–	–
O=C(CCCCCN1C(=O)c2ccccc2C(=O)N(Cc2ccccc2)c2ccccc21)NO [Compound 7o]	172 to 173 °C	64.5 ± 2.1%	3550 ± 750 nM	3520 ± 800 nM	–	–	–	–	–	–	–	–	–
O=C(CCCCCN1C(=O)c2ccccc2C=Cc2ccccc21)NO [Compound 7k]	–	15.7 ± 1.3%	220 ± 21 nM	460 ± 122 nM	183 ± 15 nM	1270 ± 420 nM	1.01	618 ± 95 nM	2.07	1280 ± 150 nM	5.82	2.78	3370 ± 330 nM
CN1C(=O)c2cc(Cl)c(Cl)cc2C(=O)N(CCCCCC(=O)NO)c2ccccc21 [Compound 7n]	104 to 105 °C	68.3 ± 2.8%	2850 ± 340 nM	2560 ± 980 nM	–	–	–	–	–	–	–	–	–
CN1C(=O)c2ccccc2N(CCCC(=O)NO)C(=O)c2ccccc21 [Compound 7c]	190 to 191 °C	75.4 ± 3.0%	> 50000 nM	> 50000 nM	–	–	–	–	–	–	–	–	–
CN1C(=O)c2cc(Br)ccc2N(CCCCCC(=O)NO)C(=O)c2ccccc21 [Compound 7r]	76 to 77 °C	31.5 ± 7.1%	603 ± 132 nM	785 ± 246 nM	875 nM and 914 nM	4610 ± 380 nM	0.73	2720 ± 570 nM	1.24	3370 ± 870 nM	5.59	4.29	–
CN1C(=O)c2ccccc2N(CCCCCC(=O)NO)C(=O)c2ccccc21 [Compound 7e]	155 to 156 °C	48.7 ± 1.0%	2330 ± 640 nM	3030 ± 550 nM	1960 ± 105 nM	–	–	–	–	–	–	–	5670 ± 640 nM
O=C(CN1C(=O)c2ccccc2C=Cc2ccccc21)NO [Compound 7g]	119 to 120 °C	83.6 ± 4.2%	34000 ± 750 nM	17300 ± 6200 nM	–	–	–	–	–	–	–	–	–
O=C(CCCCCN1C(=O)c2ccccc2CCc2ccccc21)NO [Compound 7p]	164 to 165 °C	21.5 ± 1.6%	200 ± 73 nM	318 ± 98 nM	309 ± 35 nM	1210 ± 240 nM	0.86	661 ± 120 nM	1.57	1040 ± 280 nM	5.20	3.27	3140 ± 420 nM
O=C(CCCN1C(=O)c2ccccc2C=Cc2ccccc21)NO [Compound 7i]	172 to 173 °C	90.4 ± 1.6%	> 50000 nM	> 50000 nM	–	–	–	–	–	–	–	–	–
COc1cc2c(cc1OC)N(CCCCCC(=O)NO)C(=O)c1ccccc1N(C)C2=O [Compound 7s]	82 to 83 °C	35.9 ± 0.8%	692 ± 110 nM	944 ± 167 nM	914 nM and 875 nM	18000 ± 5770 nM	0.67	4240 ± 1030 nM	2.84	12000 ± 5900 nM	17.4	12.75	–
CN1C(=O)c2cc3ccccc3cc2N(CCCCCC(=O)NO)C(=O)c2cc(Cl)ccc21 [Compound 7t]	161 to 162 °C	19.9 ± 1.6%	93 ± 9 nM	137 ± 40 nM	266 ± 14 nM	1050 ± 70 nM	0.66	368 ± 15 nM	1.88	690 ± 50 nM	7.42	5.04	1950 ± 170 nM
CN1C(=O)c2ccccc2N(CCCCC(=O)NO)C(=O)c2ccccc21 [Compound 7d]	217 to 218 °C	64.6 ± 3.6%	7580 ± 2500 nM	9600 ± 2100 nM	–	–	–	–	–	–	–	–	–
O=C(CCN1C(=O)c2ccccc2C=Cc2ccccc21)NO [Compound 7h]	173 to 174 °C	87.5 ± 1.2%	> 50000 nM	32600 ± 4780 nM	–	–	–	–	–	–	–	–	–
CN1C(=O)c2ccccc2C(=O)N(CCCCCC(=O)NO)c2ccccc21 [Compound 7m]	95 to 96 °C	72.7 ± 5.2%	4450 ± 960 nM	5090 ± 300 nM	–	–	–	–	–	–	–	–	–
O=C(CCCCCCN1C(=O)c2ccccc2C=Cc2ccccc21)NO [Compound 7l]	151 to 152 °C	44.7 ± 4.4%	1570 ± 120 nM	1440 ± 610 nM	1240 ± 155 nM	–	–	–	–	–	–	–	–
CN1C(=O)c2ccccc2N(CCC(=O)NO)C(=O)c2ccccc21 [Compound 7b]	105 to 106 °C	84.1 ± 2.3%	> 50000 nM	> 50000 nM	–	–	–	–	–	–	–	–	–

Reference: PMC8470702 (Pharmaceuticals, 2021)
